Test results from US11286263B2, “Macrocyclic fluorine substituted indole derivatives” (The Broad Institute, Inc., priority 2017, dated 2022).
Values joined by “and” are separate entries in the source; they are usually repeats but may differ in a detail not shown here. Equal values may be shown once. Where a name gives a salt, the structure may show the parent alone. Read-outs that look alike come from different tables or passages of the source.

Legend:
SUDHL10 = experiment: Induction of caspase-3/7 activity, SUDHL10 (Assay 4); type: cell-based; conditions: SUDHL10 cells
Summary of the method: (§1)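 DLBCL lines treated with compounds for 3 h at 37° C.; caspase-3/7 activity read by Caspase-Glo 3/7 luminescence. Medium-only background subtracted; EC50 fitted with bottom fixed at 1 and top set to reference compound's maximal induction.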

MCL-1 = MCL-1 (Homo sapiens (Human), UniProt Q07820, K194A/K197A/R201A); experiment: Protein-protein interaction assay MCL-1/Noxa BH3 peptide (MCL-1 assay), TR-FRET; type: binding; conditions: MCL-1/Noxa BH3 peptide TR-FRET; median
MCL-1, sequence (Q07820 whole entry K194A/K197A/R201A, looked up): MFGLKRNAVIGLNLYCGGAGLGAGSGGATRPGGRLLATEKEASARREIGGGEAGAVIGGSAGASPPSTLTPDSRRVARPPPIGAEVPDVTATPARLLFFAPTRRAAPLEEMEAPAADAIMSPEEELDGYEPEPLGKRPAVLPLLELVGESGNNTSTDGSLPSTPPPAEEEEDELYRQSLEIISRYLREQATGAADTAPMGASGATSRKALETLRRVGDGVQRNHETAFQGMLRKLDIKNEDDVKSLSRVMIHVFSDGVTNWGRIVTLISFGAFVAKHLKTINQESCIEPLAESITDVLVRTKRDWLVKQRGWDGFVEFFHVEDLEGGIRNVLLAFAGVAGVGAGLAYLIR
Summary of the method: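 TR-FRET competition between MBP-MCL-1 (173-321, 1 nM) and biotin-Noxa BH3 peptide (1 nM) with anti-MBP-Eu/streptavidin-XL665; 11 compound levels 0.1 nM–20 μM, 10 min preincubation. Incubated 1 h at 22 °C then overnight at 4 °C, pH 7 Tris buffer. 665/620 ratio normalized to DMSO and no-MCL-1; 4-parameter IC50.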

MV-4-11 = experiment: Antiproliferation assay MV-4-11 (Assay 7); type: cell-based; conditions: MV-4-11 cells, CellTiter-Glo, single determinations, read-out: IC50 Antiproli MV-4-11
Summary of the method: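 Cells were incubated with compounds for 72 h at 37°C. Viability was then read by CellTiter-Glo luminescence, and a parallel day 0 plate read the same way gave the time-zero signal.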

SUDHL5 = experiment: Induction of caspase-3/7 activity, SUDHL5 (Assay 4); type: cell-based; conditions: SUDHL5 cells
Summary of the method: as §1

[1] = Homo sapiens, SU-DHL10, 3 h, Caspase-Glo 3/7, median
[2] = Homo sapiens, SU-DHL-5, 3 h, Caspase-Glo 3/7, median

Row | Molecule | EC50 (SUDHL10; [1]) [nM] | IC50 (MCL-1) [nM] | IC50 (MV-4-11; Homo sapiens, MV4-11, 72 h) [nM] | IC50 (MV-4-11; 72 h) | EC50 (SUDHL5; [2]) [nM] | EC50 (SUDHL10; 3 h, Caspase-Glo 3/7, median) [nM] | IC50 (MV-4-11; 72 h, listed as 07) | EC50 (SUDHL5; 3 h, Caspase-Glo 3/7, median) [nM]
1 | Cc1cc(OCCCc2c(C(=O)O)n3c4c(c(F)ccc24)-c2c(C)nn(C)c2COCCCC3)cc(C)c1Cl (racemic) [Example 36, (rac)-1-(3-(4-chloro-3,5-dimethylphenoxy)propyl)-13-fluoro-10,12-dimethyl-4,5,6,7,9,10-hexahydropyrazolo[4′,3′:9,10][1]oxa[6]azacycloundecino[8,7,6-hi]indole-2-carboxylic acid] | 12000 | 2.1 | 16400 |  | 3500 |  |  | 
2 | CCc1nn(C)c2c1-c1c(F)ccc3c(CCCOc4cccc5c4CCCC5)c(C(=O)O)n(c13)CCCCOC2 (racemic) [Example 44, (rac)-12-ethyl-13-fluoro-10-methyl-1-(3-((5,6,7,8-tetrahydronaphthalen-1-yl)oxy)propyl)-4,5,6,7,9,10-hexahydropyrazolo[4′,3′:9,10][1]oxa[6]azacycloundecino[8,7,6-hi]indole-2-carboxylic acid] | 4500 | 1.7 | 9830 |  | 1600 |  |  | 
3 | CCc1nn(C)c2c1-c1c(F)ccc3c(CCCOc4cccc5c4CCC5)c(C(=O)O)n(c13)CCCCOC2 (racemic) [Example 45, (rac)-1-(3-((2,3-dihydro-1H-inden-4-yl)oxy)propyl)-12-ethyl-13-fluoro-10-methyl-4,5,6,7,9,10-hexahydropyrazolo[4′,3′:9,10][1]oxa[6]azacycloundecino[8,7,6-hi]indole-2-carboxylic acid] | 6400 | 1.4 | 6200 | 6560 nM | 1400 |  |  | 
4 | CCc1nn(C)c2c1-c1c(F)ccc3c(CCCOc4cc(C)c(Cl)c(C)c4)c(C(=O)O)n(c13)CCCCOC2 (racemic) [Example 46, (rac)-1-(3-(4-chloro-3,5-dimethylphenoxy)propyl)-12-ethyl-13-fluoro-10-methyl-4,5,6,7,9,10-hexahydropyrazolo[4′,3′:9,10][1]oxa[6]azacycloundecino[8,7,6-hi]indole-2-carboxylic acid] | 7700 | 2 | 21000 | 11400 nM | 2500 |  |  | 
5 | Cc1c2c(nn1C)COCCCCn1c(C(=O)O)c(CCCOc3ccc(F)c4ccccc34)c3ccc(F)c-2c31 (single isomer, unassigned; enantiomer 1) [Example 16, 4-fluoro-7-{3-[(4-fluoronaphthalen-1-yl)oxy]propyl}-2,3-dimethyl-2,10,11,12,13,15-hexahydro-pyrazolo[4′,3′:9,10][1,6]oxazacycloundecino[8,7,6-hi]indole-8-carboxylic acid (enantiomer 1)] |  | 1.9 |  | 3550 nM |  | 4100 |  | 720
6 | CCc1nn(C)c2c1-c1c(F)ccc3c(CCCOc4ccc(F)c5ccccc45)c(C(=O)O)n(c13)CCCCOC2 (single isomer, unassigned; enantiomer 1) [Example 42, 3-ethyl-4-fluoro-7-{3-[(4-fluoronaphthalen-1-yl)oxy]propyl}-1-methyl-1,10,11,12,13,15-hexahydropyrazolo[4′,3′:9,10][1,6]oxazacycloundecino[8,7,6-hi]indole-8-carboxylic acid (enantiomer 1)] |  | 1.7 |  | 5790 nM |  | 6300 |  | 1800
7 | CCc1c2c(nn1C)COCCCCn1c(C(=O)O)c(CCCOc3cccc4cc(F)ccc34)c3ccc(F)c-2c31 (single isomer, unassigned; enantiomer 2) [Example 23, 3-ethyl-4-fluoro-7-{3-[(6-fluoronaphthalen-1-yl)oxy]propyl}-2-methyl-2,10,11,12,13,15-hexahydropyrazolo[4′,3′:9,10][1,6]oxazacycloundecino[8,7,6-hi]indole-8-carboxylic acid-N-ethylethanamine salt (enantiomer 2)] |  | 9.6 |  | 15500 nM |  | 11000 |  | 2700

Molecules with a lower IC50 (MCL-1), results first:

Row | EC50 (SUDHL10; [1]) [nM] | IC50 (MCL-1) [nM] | IC50 (MV-4-11; Homo sapiens, MV4-11, 72 h) [nM] | IC50 (MV-4-11; 72 h) | EC50 (SUDHL5; [2]) [nM] | EC50 (SUDHL10; 3 h, Caspase-Glo 3/7, median) [nM] | IC50 (MV-4-11; 72 h, listed as 07) | EC50 (SUDHL5; 3 h, Caspase-Glo 3/7, median) [nM] | Molecule
8 | 5900 | 1.3 | 11600 | 12300 nM | 1800 |  |  |  | Cc1nn(C)c2c1-c1c(F)ccc3c(CCCOc4cccc5c4CCCC5)c(C(=O)O)n(c13)CCCCOC2 (racemic) [Example 34, (rac)-13-fluoro-10,12-dimethyl-1-(3-((5,6,7,8-tetrahydronaphthalen-1-yl)oxy)propyl)-4,5,6,7,9,10-hexahydropyrazolo[4′,3′:9,10][1]oxa[6]azacycloundecino[8,7,6-hi]indole-2-carboxylic acid]
9 | 20000 | 1.3 | 12400 |  | 6200 |  |  |  | Cc1nn(C)c2c1-c1c(F)ccc3c(CCCOc4cccc5c4CCC5)c(C(=O)O)n(c13)CCCCOC2 (racemic) [Example 35, (rac)-1-(3-((2,3-dihydro-1H-inden-4-yl)oxy)propyl)-13-fluoro-10,12-dimethyl-4,5,6,7,9,10-hexahydropyrazolo[4′,3′:9,10][1]oxa[6]azacycloundecino[8,7,6-hi]indole-2-carboxylic acid]
10 |  | 1.3 |  | 1770 nM and 3040 nM |  | 1700 |  | 870 | (rac)-1-(3-((2,3-dihydro-1H-inden-4-yl)oxy)propyl)-12-ethyl-13-fluoro-11-methyl-4,5,6,7,9,11-hexahydropyrazolo[4′,3′:9,10][1]oxa[6]azacycloundecino[8,7,6-hi]indole-2-carboxylic acid [Example 30]
11 | 7200 | 1.2 | 8400 | 6800 nM and 7540 nM | 1700 |  |  |  | CCc1nn(C)c2c1-c1c(F)ccc3c(CCCOc4cccc5ccccc45)c(C(=O)O)n(c13)CCCCOC2 (racemic) [Example 37, (rac)-12-ethyl-13-fluoro-10-methyl-1-(3-(naphthalen-1-yloxy)propyl)-4,5,6,7,9,10-hexahydro-pyrazolo[4′,3′:9,10][1]oxa[6]azacycloundecino[8,7,6-hi]indole-2-carboxylic acid]
12 |  | 0.98 |  | 679 nM and 412 nM |  | 680 |  | 340 | Cc1c2c(nn1C)COCCCCn1c(C(=O)O)c(CCCOc3cccc4cc(F)ccc34)c3ccc(F)c-2c31 (single isomer, unassigned; enantiomer 1) [Example 13, 4-fluoro-7-{3-[(6-fluoronaphthalen-1-yl)oxy]propyl}-2,3-dimethyl-2,10,11,12,13,15-hexahydro-pyrazolo[4′,3′:9,10][1,6]oxazacycloundecino[8,7,6-hi]indole-8-carboxylic acid-N-ethylethanamine salt (enantiomer 1)]
13 |  | 0.97 |  |  |  | 1000 | 2370 nM and 1940 nM | 370 | CCc1c2c(nn1C)COCCCCn1c(C(=O)O)c(CCCOc3cccc4ccccc34)c3ccc(F)c-2c31 (single isomer, unassigned; enantiomer 1) [Example 7, 3-ethyl-4-fluoro-2-methyl-7-{3-[(naphthalen-1-yl)oxy]propyl}-2,10,11,12,13,15-hexahydro-pyrazolo[4′,3′:9,10][1,6]oxazacycloundecino[8,7,6-hi]indole-8-carboxylic acid-N-ethylethanamine salt (enantiomer 1)]
